Values of other authors, collected in US20220016119A1, “METHODS AND TREATMENTS FOR ERECTILE DYSFUNCTION” (Record Buck Farms Medical Cannabis, LLC, priority 2018, published 2022).

Conditions: doses of up to 1500 mg/day

C=C(C)[C@@H]1CCC(C)=C[C@H]1c1c(O)cc(CCCCC)cc1O [Cannabidiol, cannabidiol]
adverse effects in patients: no significant adverse effects
